Common to all, as to type: in vivo
Experiment [1] concerns 5-MDMT induced symptoms. Put plainly: Anti-5HT activity: inhibition of 5-MDMT induced symptoms in rats. The note with it: Rat; for ED50: po. The protocol:
[The procedure below names another organism; the source lists this organism under the same test.] (§1) Mice (♂ CD^-1 Charles Rine) are pretreated with the compounds 10 animals/group under investigation and 1 h later one group is injected with 10 mg/kg ip 5-methoxy-N,N-dimethyltryptamioe (Sigma). The symptoms of fore- paw tapping movements, head jerks and splayed limbs are scored: 1, present; O, absent, giving a maximum score of 3/mouse or 30/group. Results are expressed as the percentage inhibition compared to the group treated with 5-methoxy-N,N-dimethyl tryptamine alone. The dose of compound inhibiting the symptoms by 50% is determined graphically.

For experiment [2], the system named is 5-MDMT induced symptoms. Kind of experiment: Anti-5HT activity: inhibition of 5-methoxy-N,N-dimethyltryptamine induced symptoms in mice. Conditions: Mouse, p.o., pretreated 1 h before 10 mg/kg ip 5-methoxy-N,N-dimethyltryptamine, dose inhibiting symptoms by 50%; for ED50: po. The protocol:
as §1

The subject of experiment [3] is post-synaptic Dopamine (D.A.) receptors. Put plainly: Dopamine receptor blocking activity in the CNS: inhibition of apomorphine induced climbing. The note with it: male CDl mice, p.o., apomorphine 1 mg/kg subcutaneous. The method, then: The test is based on that described by Protais, P., Constantin, J. and Schwartz J.C. (1976), Psychopharmacology, 50, 1-6.
When mice are given a dose of 1 mg/kg apomorphine and then placed in an enclosed environment, such as an inverted wire cage, they are seen to climb around the walls. This behavioural phenomenon is thought to be a consequence of the stimulation of post-synaptic Dopamine (D.A.) receptors in the nucleus accumbens. Inhibition of apomorphine induced climbing is therefore indicative of post-synaptic D.A. receptor blockade in the accumbens.
Groups of 10 male CDl mice, weighing 25-30 g were pre-treated orally with either graded doses of the test compound or vehicle, at appropriate time intervals before the subcutaneous administration of a sub-maximal dose of apomorphine (1 mg/kg). Immediately after the apomorphine injection the mice were placed in wire 'climbing cages' and each animal was scored for climbing behavour at 10 and 20 minutes post apomorphine as follows:- • Four paws on cage floor = O • Fore paws on cage wall = 1 • Four paws on cage wall = 2 […]

Regarding “4-Amino-5-chloro-2-methoxy-N-[3-β-(8-cyclopropylmethyl-8-azabicyclo (3,2,1)octyl]benzamide [Example 3]”, the “Anti 5-HT Activity Inhibition of 5-MDMT induced symptoms” value with 5-MDMT induced symptoms [1] (at 10 mg/kg p.o.) turned out to be 56% at 10. Besides, the “Anti 5-HT Activity Inhibition of 5-MDMT induced symptoms ED50” value with 5-MDMT induced symptoms [2] was “ED503 mg/kg”.
The ED50 is the dose that gives a 50% effect, or the effect in half of the subjects. As to `COc1cc(N)c(Br)cc1C(=O)NC1CC2CCC(C1)N2CC(C)(C)C` (stereo not drawn) [Example 7, 4-Amino-5-bromo-2-methoxy-N-[3-β-(8-neopentyl-8-azabicyclo (3,2,1)octyl) ]benzamide], the median effective dose (ED50) with 5-MDMT induced symptoms [2] worked out at 4 mg/kg.
Turning to `COc1cc(N)c(Cl)cc1C(=O)NC1CC2CCCC(C1)N2CC(C)(C)C` (stereo not drawn) [Example 4, 4-Amino-5-chloro-2-mthoxy-N-[3-β-(9-neopentyl-9-azabicyclo (3,3,1)nonyl)]benzamide], the ED50 turned out to be 6.2 mg/kg with 5-MDMT induced symptoms [1] and 4.6 mg/kg with 5-MDMT induced symptoms [2].
Turning to `COc1cc(NC(C)=O)c(Cl)cc1C(=O)N[C@@H]1C[C@H]2CC[C@@H](C1)N2CC(C)(C)C` [Example 1, 4-Aoetylamino-5-chloro-2-methoxy-N-[3-β-(8-neopentyl-8-azabicyclo (3,2,1)octyl)]benzamide], the values for the ED50 in the experiment with 5-MDMT induced symptoms [1] and with 5-MDMT induced symptoms [2] were 10 mg/kg and 2.4 mg/kg, respectively. The “ED50 inhibition of apomorphine - induced climbing” value in experiment [3] is reported as 4 mg/kg.
For `COc1cc(N)c(Cl)cc1C(=O)NC1CC2CCC(C1)N2CCC(C)C` (stereo not drawn) [Example 5, 4-Amino-5-chloro-2-methoxy-N-[3-β-(8-isopentyl-8-azabicyclo(3,2,1)octyl)] benzamide], the ED50 in the experiment on 5-MDMT induced symptoms [2] is 8 mg/kg.
As to `COc1cc(N)c(Cl)cc1C(=O)NC1CC2CCC(C1)N2CC(C)(C)C` (stereo not drawn) [Example 2, 4-Amino-5-chloro-2-methoxy-N-[3-β-(8-neopentyl-8-azabicyclo (3,2,1)octyl)] benzamide], the ED50 in the experiment with 5-MDMT induced symptoms [1] amounted to 7.2 mg/kg; in the experiment on 5-MDMT induced symptoms [2] it was 0.2 mg/kg.
For `COc1cc(NC(C)=O)c(Cl)cc1C(=O)NC1CC2CCCC(C1)N2CC(C)(C)C` (stereo not drawn) [Example 6], in the experiment with 5-MDMT induced symptoms [1], the ED50 was determined as 10 mg/kg.

The values are drawn from patent EP0099194A2, “Novel benzamides” (BEECHAM GROUP PLC, priority 1982, dated 1984).
